Data taken from DBAASP.
≈ marks a conversion by molar mass, not a printed value. One block for each molecule: values may come before it.

What was measured:
Test in all cases: ≥ marks a high value that may be exact or a test limit, other limits are often not marked, values filed in µg/mL are converted to µM
[1] = system: Pseudomonas aeruginosa ATCC 13388
[2] = system: Klebsiella pneumoniae ATCC 10031
[3] = system: Escherichia coli ATCC 11219
[4] = system: Staphylococcus aureus ATCC 6538
[5] = system: Salmonella enterica subsp. enterica serovar Typhimurium ATCC 14028
[6] = system: Vibrio alginolyticus CGMCC 1.1833
[7] = system: Staphylococcus aureus CGMCC 1.0363
[8] = system: Aeromonas hydrophila CGMCC 1.0927
[9] = system: Vibrio parahaemolyticus CGMCC 1.1615
[10] = system: Escherichia coli ATCC 25922
[11] = system: Corynebacterium glutamicum CGMCC 1.1886
[12] = system: Klebsiella pneumoniae M9375
[13] = system: Escherichia coli M9884
[14] = system: Pseudomonas aeruginosa PACO12
[15] = system: Staphylococcus aureus P33
[16] = system: Klebsiella pneumoniae M5825
[17] = system: Staphylococcus saprophyticus M4070
[18] = system: Enterococcus faecalis M4899
[19] = system: Acinetobacter sp. M9013
[20] = system: Enterococcus faecium M2304
[21] = system: Klebsiella pneumoniae PFAV 3
[22] = system: Enterococcus faecalis M6983
[23] = system: Escherichia coli M9209
[24] = system: Pseudomonas aeruginosa M11005
[25] = system: Acinetobacter sp. M5949
[26] = system: Enterococcus faecalis ATCC 29212
[27] = system: Staphylococcus aureus ATCC 25923
[28] = system: Staphylococcus hominis M2967
[29] = system: Acinetobacter sp. M13523
[30] = system: Staphylococcus warneri
[31] = system: Enterococcus gallinarum M2723
[32] = system: Klebsiella pneumoniae M9491
[33] = system: Escherichia coli M7859
[34] = system: Staphylococcus haemolyticus M2976
[35] = system: Klebsiella pneumoniae M11245
[36] = system: Escherichia coli M5306
[37] = system: Enterococcus faecium PZAP 95
[38] = system: Staphylococcus cohnii
[39] = system: Staphylococcus hominis M2973
[40] = system: Acinetobacter sp. M9665
[41] = system: Enterococcus faecalis ATCC 51299
[42] = system: Pseudomonas aeruginosa ATCC 27853
[43] = system: Staphylococcus aureus M6784
[44] = system: Staphylococcus epidermidis M2921
[45] = system: Staphylococcus epidermidis M2923
[46] = system: Micrococcus luteus ATCC 7468
[47] = system: Escherichia coli BL2
[48] = system: Enterococcus faecium ATCC 19434
[49] = system: Staphylococcus aureus ATCC 502A
[50] = system: Acinetobacter baumannii ATCC 15308
[51] = system: Pseudomonas sp. ATCC 15915
[52] = system: Staphylococcus aureus DBFIQ S21
[53] = system: Listeria monocytogenes DBFIQ LM3

MIC [1]: 20 µM (≈ 30 µg/mL) | MIC [2]: 5 µM (≈ 7.51 µg/mL) | MIC [3]: 3 µM (≈ 4.51 µg/mL) | MIC [4]: 10 µM (≈ 15 µg/mL) | MIC [5]: 10 µM (≈ 15 µg/mL)
Compound: CC[C@H](C)[C@H](NC(=O)CN)C(=O)N[C@@H](CCCN=C(N)N)C(=O)N[C@@H](CCCN=C(N)N)C(=O)N[C@H](C(=O)N[C@@H](CC(C)C)C(=O)N[C@@H](CCCN=C(N)N)C(=O)N[C@@H](Cc1ccc(O)cc1)C(=O)NCC(=O)N[C@@H](CCCN=C(N)N)C(=O)N[C@@H](CCCN=C(N)N)C(=O)N[C@@H](CO)C(N)=O)[C@@H](C)CC [GIRRILRYGRRS]

MIC [6]: ≥ 48 µM | MIC [7]: 12 µM (≈ 35 µg/mL) | MIC [8]: 12 µM (≈ 35 µg/mL) | MIC [10]: 24 µM (≈ 70 µg/mL) | MIC [11]: 12 µM (≈ 35 µg/mL)
Compound: CSCC[C@H](NC(=O)[C@H](CO)NC(=O)[C@H](CC(C)C)NC(=O)[C@H](Cc1cnc[nH]1)NC(=O)[C@H](CO)NC(=O)[C@@H](N)CCC(N)=O)C(=O)N[C@H]1CSSC[C@@H](C(=O)N[C@@H](CCCN=C(N)N)C(=O)N[C@@H](Cc2ccccc2)C(=O)O)NC(=O)[C@@H]2CSSC[C@@H]3NC(=O)[C@@H]4CSSC[C@H](NC(=O)[C@H](C(C)C)NC(=O)[C@H](CO)NC1=O)C(=O)N[C@@H](CSSC[C@H](NC(=O)CNC(=O)[C@H](CCCCN)NC(=O)[C@H](Cc1ccc(O)cc1)NC(=O)[C@H](CC(N)=O)NC(=O)[C@H](CCCCN)NC3=O)C(=O)NCC(=O)N[C@@H](Cc1ccccc1)C(=O)N2)C(=O)N[C@@H](CC(N)=O)C(=O)N4 [QSHLSMCSVCCNCCKNYKGCGFCCRF]
MIC [9]: ≥ 48 µM

MIC [12]: 6.79 µM (≈ 16 µg/mL) | MIC [13]: 13.6 µM (≈ 32 µg/mL) | MIC [14]: 27.2 µM (≈ 64 µg/mL) | MIC [15]: 27.2 µM (≈ 64 µg/mL) | MIC [16]: 13.6 µM (≈ 32 µg/mL) | MIC [17]: 3.39 µM (≈ 8 µg/mL) | MIC [18]: ≥ 109 µM | MIC [19]: 13.6 µM (≈ 32 µg/mL) | MIC [20]: 3.39 µM (≈ 8 µg/mL) | MIC [21]: ≥ 54.3 µM | MIC [22]: ≥ 54.3 µM | MIC [23]: ≥ 54.3 µM | MIC [24]: ≥ 54.3 µM | MIC [25]: ≥ 109 µM | MIC [26]: 54.3 µM (≈ 128 µg/mL) | MIC [27]: 13.6 µM (≈ 32 µg/mL) | MIC [28]: 3.39 µM (≈ 8 µg/mL) | MIC [29]: 27.2 µM (≈ 64 µg/mL) | MIC [30]: 3.39 µM (≈ 8 µg/mL) | MIC [31]: 6.79 µM (≈ 16 µg/mL) | MIC [32]: 27.2 µM (≈ 64 µg/mL) | MIC [33]: 6.79 µM (≈ 16 µg/mL) | MIC [35]: 3.39 µM (≈ 8 µg/mL) | MIC [36]: 27.2 µM (≈ 64 µg/mL) | MIC [37]: 6.79 µM (≈ 16 µg/mL) | MIC [38]: 3.39 µM (≈ 8 µg/mL) | MIC [39]: 1.7 µM (≈ 4 µg/mL) | MIC [10]: 13.6 µM (≈ 32 µg/mL) | MIC [40]: ≥ 54.3 µM | MIC [41]: ≥ 109 µM | MIC [42]: 27.2 µM (≈ 64 µg/mL) | MIC [43]: 13.6 µM (≈ 32 µg/mL) | MIC [44]: 3.39 µM (≈ 8 µg/mL) | MIC [45]: 6.79 µM (≈ 16 µg/mL)
Compound: CC[C@H](C)[C@H](NC(=O)[C@H](CCCN=C(N)N)NC(=O)[C@H](CCC(N)=O)NC(=O)[C@@H](NC(=O)[C@@H](NC(=O)[C@@H](N)CCCN=C(N)N)[C@@H](C)CC)C(C)C)C(=O)N[C@@H](CCCCN)C(=O)N[C@@H](CCCCN)C(=O)N[C@@H](Cc1c[nH]c2ccccc12)C(=O)N[C@@H](CC(C)C)C(=O)N[C@@H](CC(C)C)C(=O)N[C@@H](CCCCN)C(=O)N[C@@H](Cc1c[nH]c2ccccc12)C(=O)N[C@@H](CCCCN)C(=O)N[C@@H](CCCCN)C(=O)N[C@@H](CC(C)C)C(=O)NCC(=O)N[C@@H](Cc1ccc(O)cc1)C(N)=O [RIVQRIKKWLLKWKKLGY]
MIC [34]: 3.39 µM (≈ 8 µg/mL)

MIC [46]: 7 µM (≈ 19.3 µg/mL) | MIC [47]: 7 µM (≈ 19.3 µg/mL) | MIC [48]: 7 µM (≈ 19.3 µg/mL) | MIC [49]: 1.5 µM (≈ 4.13 µg/mL) | MIC [50]: 1.1 µM (≈ 3.03 µg/mL) | MIC [51]: 7 µM (≈ 19.3 µg/mL)
Compound: CC[C@H](C)[C@H](NC(=O)[C@H](C)NC(=O)[C@H](CCCN=C(N)N)NC(=O)[C@H](CCSC)NC(=O)[C@H](C)NC(=O)[C@@H](NC(=O)[C@@H](N)[C@@H](C)O)[C@@H](C)CC)C(=O)N[C@@H](CC(N)=O)C(=O)N[C@@H](CC(N)=O)C(=O)N[C@@H](Cc1ccc(O)cc1)C(=O)N[C@@H](CCCN=C(N)N)C(=O)N[C@@H](Cc1c[nH]c2ccccc12)C(=O)N[C@@H](CCCN=C(N)N)C(=O)N[C@@H](CO)C(=O)N[C@@H](CCCCN)C(=O)N[C@@H](CC(N)=O)C(=O)N[C@@H](CCC(N)=O)C(=O)N[C@@H](CC(N)=O)C(=O)N[C@H](C(=O)N[C@@H](Cc1ccccc1)C(=O)N[C@@H](CC(C)C)C(=O)N[C@@H](CCCN=C(N)N)C(=O)O)[C@@H](C)O [TIAMRAINNYRWRSKNQNTFLR]

MIC [52]: 6.6 µM (≈ 16 µg/mL) | MIC [53]: 1.7 µM (≈ 4.12 µg/mL)
Compound: CC[C@H](C)[C@H](NC(=O)[C@H](C)NC(=O)[C@@H](NC(=O)[C@H](C)NC(=O)CNC(=O)[C@H](CCSC)NC(=O)[C@H](CCC(N)=O)NC(=O)[C@H](CC(C)C)NC(=O)[C@H](CO)NC(=O)[C@@H](N)Cc1ccc(O)cc1)[C@@H](C)O)C(=O)N[C@@H](CCCCN)C(=O)N[C@@H](CCC(N)=O)C(=O)N[C@H](C(=O)N[C@@H](CCCCN)C(=O)N[C@@H](CCCCN)C(=O)N[C@@H](CC(C)C)C(=O)N[C@@H](Cc1ccccc1)C(=O)N[C@@H](CCCCN)C(=O)N[C@@H](CCCCN)C(=O)N[C@@H](CCCCN)C(=O)NCC(=O)NCC(N)=O)C(C)C [YSLQMGATAIKQVKKLFKKKGG]
